From ChEMBL document CHEMBL1201862, “PubChem BioAssay data set” (2004)
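Following 48 hours of exposure in 96-well plates, responses at five concentrations were used to interpolate endpoints linearly. Abbreviation: GI50, concentration required for 50% inhibition of growth.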 Calls of active or inactive are those of the source. Rule as the data show it: active = GI50 up to about 1.1 µM and inactive = higher.

Tests used:
Test in all cases: NCI tumour cell line growth inhibition, 48 h
[1] = test system: 786-0
[2] = test system: A498
[3] = test system: A549
[4] = test system: ACHN
[5] = test system: CAKI-1
[6] = test system: CCRF-CEM
[7] = test system: COLO 205
[8] = test system: DLD-1
[9] = test system: DMS-114
[10] = test system: DMS-273
[11] = test system: EKVX
[12] = test system: HCC 2998
[13] = test system: HCT-116
[14] = test system: HCT-15
[15] = test system: HL-60
[16] = test system: HOP-18
[17] = test system: HOP-62
[18] = test system: HOP-92
[19] = test system: HT-29
[20] = test system: IGROV-1
[21] = test system: K562
[22] = test system: KM-20L2
[23] = test system: KM12
[24] = test system: LOX IMVI
[25] = test system: LXFL 529
[26] = test system: M14
[27] = test system: M19-MEL
[28] = test system: MOLT-4
[29] = test system: Malme-3M
[30] = test system: NCI-H226
[31] = test system: NCI-H23
[32] = test system: NCI-H460
[33] = test system: NCI-H522
[34] = test system: OVCAR-3
[35] = test system: OVCAR-4
[36] = test system: OVCAR-5
[37] = test system: OVCAR-8
[38] = test system: RPMI-8226
[39] = test system: RXF 631
[40] = test system: SF-268
[41] = test system: SF-295
[42] = test system: SF-539
[43] = test system: SK-MEL-28
[44] = test system: SK-MEL-2
[45] = test system: SK-MEL-5
[46] = test system: SK-OV-3
[47] = test system: SN12C
[48] = test system: SNB-19
[49] = test system: SNB-75
[50] = test system: SW-620
[51] = test system: TK-10
[52] = test system: U-251
[53] = test system: UACC-62
[54] = test system: BT-549
[55] = test system: DU-145
[56] = test system: Hs-578T
[57] = test system: MCF7
[58] = test system: MDA-MB-231
[59] = test system: MDA-MB-435
[60] = test system: MDA-N
[61] = test system: NCI/ADR-RES
[62] = test system: PC-3
[63] = test system: RXF 393
[64] = test system: SNB-78
[65] = test system: SR
[66] = test system: T47D
[67] = test system: UACC-257
[68] = test system: UO-31

SMILES: COC(=O)c1ccc(C=C(C#N)C#N)cc1
- GI50 [1]: 16.9 µM (inactive)
- GI50 [2]: > 100 µM (inactive)
- GI50 [3]: > 100 µM (inactive)
- GI50 [4]: 25 µM (inactive)
- GI50 [5]: 30.7 µM (inactive)
- GI50 [6]: 21.5 µM (inactive)
- GI50 [7]: 27.7 µM (inactive)
- GI50 [8]: 22.2 µM (inactive)
- GI50 [9]: 19.2 µM (inactive)
- GI50 [10]: 17.4 µM (inactive)
- GI50 [11]: 33.8 µM (inactive)
- GI50 [12]: 15.6 µM (inactive)
- GI50 [13]: 17.1 µM (inactive)
- GI50 [14]: 35 µM
- GI50 [15]: 28.4 µM (inactive)
- GI50 [16]: 36.1 µM (inactive)
- GI50 [17]: 27 µM (inactive)
- GI50 [18]: 14.7 µM (inactive)
- GI50 [19]: 33.4 µM (inactive)
- GI50 [20]: 28.4 µM (inactive)
- GI50 [21]: 23.2 µM (inactive)
- GI50 [22]: 30.6 µM (inactive)
- GI50 [23]: 31.6 µM (inactive)
- GI50 [24]: 21 µM (inactive)
- GI50 [25]: 18.3 µM (inactive)
- GI50 [26]: 16.5 µM (inactive)
- GI50 [27]: 25.2 µM (inactive)
- GI50 [28]: 21.7 µM (inactive)
- GI50 [29]: 20.7 µM (inactive)
- GI50 [30]: 24 µM (inactive)
- GI50 [31]: 19.4 µM (inactive)
- GI50 [32]: 83.6 µM (inactive)
- GI50 [33]: 13.7 µM (inactive)
- GI50 [34]: 29.4 µM (inactive)
- GI50 [35]: 20.6 µM (inactive)
- GI50 [36]: > 100 µM (inactive)
- GI50 [37]: 21.9 µM (inactive)
- GI50 [38]: 22.5 µM (inactive)
- GI50 [39]: 28.2 µM (inactive)
- GI50 [40]: 23 µM (inactive)
- GI50 [41]: 32.4 µM (inactive)
- GI50 [42]: 19.5 µM (inactive)
- GI50 [43]: 19.3 µM (inactive)
- GI50 [44]: 18.4 µM (inactive)
- GI50 [45]: 17.9 µM (inactive)
- GI50 [46]: > 100 µM (inactive)
- GI50 [47]: 19.3 µM (inactive)
- GI50 [48]: 38.5 µM (inactive)
- GI50 [49]: 27.4 µM (inactive)
- GI50 [50]: 21.3 µM (inactive)
- GI50 [51]: 27.9 µM (inactive)
- GI50 [52]: 24.4 µM (inactive)
- GI50 [53]: 20.8 µM (inactive)

SMILES: CN(C)C(=S)SN(C)C(=O)Nc1ccccc1
- GI50 [1]: 6.62 µM (inactive)
- GI50 [2]: 3.9 µM (inactive)
- GI50 [3]: 23.4 µM (inactive)
- GI50 [4]: 47.2 µM (inactive)
- GI50 [54]: > 41.2 µM (inactive)
- GI50 [5]: 26.1 µM (inactive)
- GI50 [6]: 0.993 µM (active)
- GI50 [7]: 4.48 µM (inactive)
- GI50 [8]: 31.1 µM (inactive)
- GI50 [9]: 2.4 µM (inactive)
- GI50 [10]: 18.2 µM (inactive)
- GI50 [55]: 63 µM (inactive)
- GI50 [11]: > 86.9 µM (inactive)
- GI50 [12]: 17.3 µM (inactive)
- GI50 [13]: 8.91 µM (inactive)
- GI50 [14]: 22.6 µM
- GI50 [15]: 2.86 µM (inactive)
- GI50 [17]: > 65.9 µM (inactive)
- GI50 [18]: 3.5 µM (inactive)
- GI50 [19]: 1.69 µM (inactive)
- GI50 [56]: > 100 µM (inactive)
- GI50 [20]: 26 µM (inactive)
- GI50 [21]: 0.998 µM (active)
- GI50 [22]: > 49.2 µM (inactive)
- GI50 [23]: 12.1 µM (inactive)
- GI50 [24]: 8.26 µM (inactive)
- GI50 [25]: 0.391 µM (active)
- GI50 [26]: 7.46 µM (inactive)
- GI50 [27]: 2.21 µM (inactive)
- GI50 [57]: 2.67 µM (inactive)
- GI50 [58]: 38.9 µM (inactive)
- GI50 [59]: 19.7 µM (inactive)
- GI50 [60]: 9.53 µM (inactive)
- GI50 [28]: 2.76 µM (inactive)
- GI50 [29]: 16.7 µM (inactive)
- GI50 [30]: 45.8 µM (inactive)
- GI50 [31]: 7.4 µM (inactive)
- GI50 [32]: 1.82 µM (inactive)
- GI50 [33]: 0.128 µM (active)
- GI50 [61]: 3.2 µM (inactive)
- GI50 [34]: 0.618 µM (active)
- GI50 [35]: 5.06 µM (inactive)
- GI50 [36]: 12.2 µM (inactive)
- GI50 [37]: 35.3 µM (inactive)
- GI50 [62]: 7.43 µM (inactive)
- GI50 [38]: 15.7 µM (inactive)
- GI50 [63]: 1.18 µM (inactive)
- GI50 [39]: > 51.9 µM (inactive)
- GI50 [40]: 38.4 µM (inactive)
- GI50 [41]: 49.3 µM (inactive)
- GI50 [42]: 34.1 µM (inactive)
- GI50 [43]: 12.2 µM (inactive)
- GI50 [44]: 39.4 µM (inactive)
- GI50 [45]: 3.28 µM (inactive)
- GI50 [46]: > 87.7 µM (inactive)
- GI50 [47]: 41.2 µM (inactive)
- GI50 [48]: 80.2 µM (inactive)
- GI50 [49]: 28.6 µM (inactive)
- GI50 [64]: 39.9 µM (inactive)
- GI50 [65]: 5.43 µM (inactive)
- GI50 [50]: 7.28 µM (inactive)
- GI50 [66]: 1.26 µM (inactive)
- GI50 [51]: > 96.2 µM (inactive)
- GI50 [52]: 18 µM (inactive)
- GI50 [67]: 46.1 µM (inactive)
- GI50 [53]: 3.62 µM (inactive)
- GI50 [68]: 57.7 µM (inactive)

SMILES: O=c1c2cc(Cl)ccc2sc2cccc(Cl)c12
- GI50 [1]: > 100 µM (inactive)
- GI50 [2]: > 100 µM (inactive)
- GI50 [3]: > 100 µM (inactive)
- GI50 [4]: > 100 µM (inactive)
- GI50 [5]: > 100 µM (inactive)
- GI50 [6]: > 100 µM (inactive)
- GI50 [7]: > 100 µM (inactive)
- GI50 [10]: > 100 µM (inactive)
- GI50 [11]: > 100 µM (inactive)
- GI50 [13]: > 100 µM (inactive)
- GI50 [14]: > 100 µM
- GI50 [15]: > 100 µM (inactive)
- GI50 [17]: > 100 µM (inactive)
- GI50 [18]: > 100 µM (inactive)
- GI50 [19]: > 100 µM (inactive)
- GI50 [20]: > 100 µM (inactive)
- GI50 [21]: > 100 µM (inactive)
- GI50 [22]: > 100 µM (inactive)
- GI50 [23]: > 100 µM (inactive)
- GI50 [24]: > 100 µM (inactive)
- GI50 [25]: > 100 µM (inactive)
- GI50 [26]: > 100 µM (inactive)
- GI50 [27]: > 100 µM (inactive)
- GI50 [28]: > 100 µM (inactive)
- GI50 [30]: > 100 µM (inactive)
- GI50 [31]: > 100 µM (inactive)
- GI50 [32]: > 100 µM (inactive)
- GI50 [33]: > 100 µM (inactive)
- GI50 [34]: > 100 µM (inactive)
- GI50 [35]: > 100 µM (inactive)
- GI50 [36]: > 100 µM (inactive)
- GI50 [37]: > 100 µM (inactive)
- GI50 [38]: > 100 µM (inactive)
- GI50 [63]: > 100 µM (inactive)
- GI50 [39]: > 100 µM (inactive)
- GI50 [40]: > 100 µM (inactive)
- GI50 [41]: > 100 µM (inactive)
- GI50 [42]: > 100 µM (inactive)
- GI50 [43]: > 100 µM (inactive)
- GI50 [44]: > 100 µM (inactive)
- GI50 [47]: > 100 µM (inactive)
- GI50 [48]: > 100 µM (inactive)
- GI50 [64]: > 100 µM (inactive)
- GI50 [65]: > 100 µM (inactive)
- GI50 [50]: > 100 µM (inactive)
- GI50 [51]: > 100 µM (inactive)
- GI50 [52]: > 100 µM (inactive)
- GI50 [67]: > 100 µM (inactive)
- GI50 [53]: > 100 µM (inactive)
- GI50 [68]: > 100 µM (inactive)
